Measured values taken from patent US8754054B2, “Antibacterial compounds, methods of making them, and uses thereof” (Albany Molecular Research, Inc., priority 2010, dated 2014).

How the values were obtained:
Test in all cases: Antibacterial activity in vitro, NCCLS dilution method (Table 10)
Type in all cases: cell-based
E. coli 2269 = settings: E. coli 2269, Gram −, ESBL-producer
From the text: (§1) NCCLS standards for antimicrobial susceptibility testing using the dilution method were followed. See: Performance Standards for Antimicrobial Susceptibility Testing; Fourteenth Informational Supplement. NCCLS Document M100-S14 (ISBN 1-56238-516-X), 2004. NCCLS, 940 West Valley Road, Suite 1400, Wayne, Pa. 19087-1898 USA, 2004; Methods for Dilution Antimicrobial Susceptibility Tests for Bacteria that Grow Aerobically; Approved Standard—Sixth Edition. NCCLS document M7-A6 (IBSBN 1-56238-486-4), NCCLS, 940 West Valley Road, Suite 1400, Wayne, Pa. 19087-1898 USA, 2003, which are hereby incorporated by reference in their entirety.

[1] = tested on: P. aeruginosa (ATCC 27853); settings: Gram −
From the text: as §1

S. aureus (ATCC 29213) = settings: Gram +, MSSA
From the text: as §1

S. pneumoniae 975 = settings: S. pneumoniae 975, Gram +, PSSP
From the text: as §1

[2] = tested on: H. parainfluenzae 2319 (ATCC 7901); settings: Gram −
From the text: as §1

S. marcescens 1635 = settings: S. marcescens 1635, Gram −
From the text: as §1

K. pneumoniae 2239 = settings: K. pneumoniae 2239, Gram −
From the text: as §1

S. aureus 1725 = settings: S. aureus 1725, Gram +, LRSA
From the text: as §1

E. coli 102 (ATCC 25922) = settings: Gram −, QC strain
From the text: as §1

K. pneumoniae 2262 = settings: K. pneumoniae 2262, Gram −, ampC, MDR
From the text: as §1

S. aureus 1137 = settings: S. aureus 1137, Gram +, MRSA
From the text: as §1

S. pneumoniae 940 = settings: S. pneumoniae 940, Gram +, PRSP
From the text: as §1

S. aureus (ATCC 6538) = settings: Gram +, MSSA
From the text: as §1

E. faecium 700221 = settings: E. faecium 700221, Gram +, VRE
From the text: as §1

M. catarrhalis 557 = settings: M. catarrhalis 557, Gram −
From the text: as §1

S. pneumoniae 376 = settings: S. pneumoniae 376, Gram +, Quin-R
From the text: as §1

S. aureus 2012 = settings: S. aureus 2012, Gram +, VISA
From the text: as §1

H. influenzae 1742 = settings: H. influenzae 1742, Gram −, ampR
From the text: as §1

S. aureus (ATCC 43300) = settings: Gram +, MRSA
From the text: as §1

S. epidermidis 1452 = settings: S. epidermidis 1452, Gram +, MRSE
From the text: as §1

S. epidermidis 1597 = settings: S. epidermidis 1597, Gram +, MSSE
From the text: as §1

E. faecalis 846 = settings: E. faecalis 846, Gram +, VRE
From the text: as §1

S. agalactiae 2033 = settings: S. agalactiae 2033, Gram +
From the text: as §1

S. pyogenes 723 = settings: S. pyogenes 723, Gram +
From the text: as §1

S. aureus 2144 = settings: S. aureus 2144, Gram +, CA, USA 300 Strain
From the text: as §1

S. pneumoniae 933 = settings: S. pneumoniae 933, Gram +, MDR
From the text: as §1

S. aureus 2018 = settings: S. aureus 2018, Gram +, VISA
From the text: as §1

S. saprophyticus 495 = settings: S. saprophyticus 495, Gram +
From the text: as §1

S. aureus 1651 = settings: S. aureus 1651, Gram +, LRSA
From the text: as §1

Structure (SMILES) | antibacterial activity (dilution susceptibility test) (E. coli 2269) | antibacterial activity (dilution susceptibility test) [1] | antibacterial activity (dilution susceptibility test) (S. aureus (ATCC 29213)) | antibacterial activity (dilution susceptibility test) (S. pneumoniae 975) | antibacterial activity (dilution susceptibility test) [2] | antibacterial activity (dilution susceptibility test) (S. marcescens 1635) | antibacterial activity (dilution susceptibility test) (K. pneumoniae 2239) | antibacterial activity (dilution susceptibility test) (S. aureus 1725) | antibacterial activity (dilution susceptibility test) (E. coli 102 (ATCC 25922)) | antibacterial activity (dilution susceptibility test) (K. pneumoniae 2262) | antibacterial activity (dilution susceptibility test) (S. aureus 1137) | antibacterial activity (dilution susceptibility test) (S. pneumoniae 940) | antibacterial activity (dilution susceptibility test) (S. aureus (ATCC 6538)) | antibacterial activity (dilution susceptibility test) (E. faecium 700221) | antibacterial activity (dilution susceptibility test) (M. catarrhalis 557) | antibacterial activity (dilution susceptibility test) (S. pneumoniae 376) | antibacterial activity (dilution susceptibility test) (S. aureus 2012) | antibacterial activity (dilution susceptibility test) (H. influenzae 1742) | antibacterial activity (dilution susceptibility test) (S. aureus (ATCC 43300)) | antibacterial activity (dilution susceptibility test) (S. epidermidis 1452) | also measured
CC(=O)NC[C@H]1CN(c2ccc(N3CCOCC3)c(F)c2)C(=O)O1 [Linezolid] | >64 | >64 | 4 | 1 | 16 | >64 | >64 | 4 | >64 | >64 | 4 | 0.5 | 0.5 | 1 | 8 | 1 | 1 | 8 | 1 |  | 
COC(=O)c1c(C)cc2c(c1O)[C@]1(O)C(=O)c3cc4c(c(O)c3C(=O)[C@]1(OC)[C@H](O)C2)C(=O)C=C(N[C@H]1O[C@@H](C)[C@H](OC)[C@@H](O)[C@H]1OC)C4=O [Cmpd 12] | 32 | 32 | ≦0.06 | ≦0.06 | 8 | 64 | 64 | ≦0.06 | 32 | 64 | ≦0.06 | ≦0.06 | 0.008 | 0.06 | 0.12 | ≦0.06 | ≦0.06 | 4 | 0.008 | ≦0.06 | antibacterial activity (dilution susceptibility test) (S. epidermidis 1597): ≦0.06; antibacterial activity (dilution susceptibility test) (E. faecalis 846): ≦0.06; antibacterial activity (dilution susceptibility test) (S. agalactiae 2033): ≦0.06; antibacterial activity (dilution susceptibility test) (S. pyogenes 723): ≦0.06; antibacterial activity (dilution susceptibility test) (S. aureus 2144): ≦0.06; antibacterial activity (dilution susceptibility test) (S. pneumoniae 933): ≦0.06; antibacterial activity (dilution susceptibility test) (S. aureus 2018): ≦0.06; antibacterial activity (dilution susceptibility test) (S. saprophyticus 495): ≦0.06; antibacterial activity (dilution susceptibility test) (S. aureus 1651): ≦0.06
CN[C@H](CC(C)C)C(=O)N[C@H]1C(=O)N[C@@H](CC(N)=O)C(=O)N[C@H]2C(=O)N[C@H]3C(=O)N[C@H](C(=O)N[C@H](C(=O)O)c4cc(O)cc(O)c4-c4cc3ccc4O)[C@H](O)c3ccc(c(Cl)c3)Oc3cc2cc(c3O[C@@H]2O[C@H](CO)[C@@H](O)[C@H](O)[C@H]2O[C@H]2C[C@](C)(N)[C@H](O)[C@H](C)O2)Oc2ccc(cc2Cl)[C@H]1O [Vancomycin] | >64 | >64 | 1 | 0.5 | 64 | >64 | >64 | 1 | >64 | >64 | 1 | 0.25 | 0.5 | >64 | >64 | 0.5 | 8 | >64 | 2 | 2 | antibacterial activity (dilution susceptibility test) (S. epidermidis 1597): 2; antibacterial activity (dilution susceptibility test) (E. faecalis 846): >64; antibacterial activity (dilution susceptibility test) (S. agalactiae 2033): 0.5; antibacterial activity (dilution susceptibility test) (S. pyogenes 723): 0.5; antibacterial activity (dilution susceptibility test) (S. aureus 2144): 1; antibacterial activity (dilution susceptibility test) (S. pneumoniae 933): 0.5; antibacterial activity (dilution susceptibility test) (S. aureus 2018): 8; antibacterial activity (dilution susceptibility test) (S. saprophyticus 495): 1; antibacterial activity (dilution susceptibility test) (S. aureus 1651): 1
